Test system: Microprocessor (Drosha and DGCR8) at the C19MC locus
Test: RNA FISH combined with immunofluorescence: recruitment of the Microprocessor on pri-miRNAs near the C19MC transcription site
Format: cell-based, human
Conditions: cells treated with Actinomycin; data not shown
Text: To determine whether the Microprocessor can be visualized on the pri-miRNAs of the freshly synthesized C19MC locus, the inventors combined RNA FISH experiments with experiments for detection of proteins by immunofluorescence, according to the techniques familiar to a person skilled in the art. The inventors were thus able to detect the endogenous Drosha or DGCR8 proteins (FIG. 4). The inventors observed a co-localization of intense immunofluorescence signals for Drosha and
Recruitment depends on transcription and probably occurs via interaction with the RNAs, since there is no detection in cells treated with Actinomycin, in which C19MC-HG is not detected near the transcription site of C19MC (data not shown).

Actinomycin
detection of C19MC-HG near the transcription site of C19MC: not detected | detection of Microprocessor recruitment on pri-miRNAs: no detection
